Data from ChEMBL document CHEMBL1152205, “Dihydropyrazolopyrimidine inhibitors of K(V)1.5 (I(Kur))” (Bioorg Med Chem Lett, 2008).

Tests used:
[1] = target: T1, Potassium voltage-gated channel subfamily A member 5 (Homo sapiens, UniProt P22460); experiment: Inhibition of human Kv1.5 channel expressed in Xenopus oocytes at 3 uM by EP voltage clamp technique; format: cell-based; details: Oocyte
[2] = target: T1, Potassium voltage-gated channel subfamily A member 5; experiment: Inhibition of human Kv1.5 channel expressed in mouse L929 cells by EP voltage clamp technique; format: cell-based
[3] = target: T1, Potassium voltage-gated channel subfamily A member 5; experiment: Inhibition of human Kv1.5 channel expressed in Xenopus oocytes at 10 uM by EP voltage clamp technique; format: cell-based; details: Oocyte
hERG (KCNH2) = hERG (KCNH2) (Homo sapiens, UniProt Q12809); experiment: Inhibition of human ERG at 10 uM
Sequence of hERG (KCNH2) (Q12809 whole entry): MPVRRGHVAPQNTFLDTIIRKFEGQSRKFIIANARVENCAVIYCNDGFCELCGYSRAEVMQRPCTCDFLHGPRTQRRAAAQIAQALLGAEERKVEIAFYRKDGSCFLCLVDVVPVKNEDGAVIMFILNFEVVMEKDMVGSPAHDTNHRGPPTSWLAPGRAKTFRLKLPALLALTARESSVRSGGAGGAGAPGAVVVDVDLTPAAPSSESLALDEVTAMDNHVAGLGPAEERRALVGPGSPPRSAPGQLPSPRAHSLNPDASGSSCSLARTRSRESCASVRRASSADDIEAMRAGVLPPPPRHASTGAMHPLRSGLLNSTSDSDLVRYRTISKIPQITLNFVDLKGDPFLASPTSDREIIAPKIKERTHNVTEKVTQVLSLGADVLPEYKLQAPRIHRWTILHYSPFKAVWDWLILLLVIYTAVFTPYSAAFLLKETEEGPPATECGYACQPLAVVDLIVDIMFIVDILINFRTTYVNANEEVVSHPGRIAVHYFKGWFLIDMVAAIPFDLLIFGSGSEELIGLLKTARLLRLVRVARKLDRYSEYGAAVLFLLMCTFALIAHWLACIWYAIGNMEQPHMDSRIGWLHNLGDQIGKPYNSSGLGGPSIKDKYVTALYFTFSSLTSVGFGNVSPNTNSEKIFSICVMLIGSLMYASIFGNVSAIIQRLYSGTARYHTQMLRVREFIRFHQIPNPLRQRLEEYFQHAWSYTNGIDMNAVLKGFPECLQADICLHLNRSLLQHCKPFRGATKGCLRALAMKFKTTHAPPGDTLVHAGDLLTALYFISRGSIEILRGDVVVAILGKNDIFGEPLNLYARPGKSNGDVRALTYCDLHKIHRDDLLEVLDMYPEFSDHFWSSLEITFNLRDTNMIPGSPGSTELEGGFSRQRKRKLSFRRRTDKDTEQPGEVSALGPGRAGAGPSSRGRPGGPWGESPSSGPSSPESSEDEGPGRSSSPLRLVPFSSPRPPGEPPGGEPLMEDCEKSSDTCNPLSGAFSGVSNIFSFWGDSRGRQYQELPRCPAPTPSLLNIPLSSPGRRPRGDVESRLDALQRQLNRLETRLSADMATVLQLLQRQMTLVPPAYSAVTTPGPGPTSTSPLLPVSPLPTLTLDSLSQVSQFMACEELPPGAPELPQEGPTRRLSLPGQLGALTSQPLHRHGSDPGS

[4] = Inhibition of sodium channel INa at 10 uM by patch clamp technique
[5] = Inhibition of L-type calcium channel ICa at 10 uM
[6] = Inhibition of potassium channel IKs at 10 uM
[7] = Inhibition of potassium channel IK1 at 10 uM
Homo sapiens = organism: Homo sapiens; experiment: Selectivity of human Kv1.5 channel over human ERG
[8] = Selectivity of human Kv1.5 channel over sodium channel INa
[9] = Selectivity of human Kv1.5 channel over L-type calcium channel ICa
[10] = Selectivity of human Kv1.5 channel over potassium channel IKs
[11] = Selectivity of human Kv1.5 channel over potassium channel IK1
[12] = target: T1, Potassium voltage-gated channel subfamily A member 5; experiment: Inhibition of human Kv1.5 channel expressed in mouse L929 cells at 1 uM by EP voltage clamp technique; format: cell-based
[13] = Inhibition of L-type calcium channel expressed in HEK293 cells; format: cell-based

T1 sequence (P22460 whole entry): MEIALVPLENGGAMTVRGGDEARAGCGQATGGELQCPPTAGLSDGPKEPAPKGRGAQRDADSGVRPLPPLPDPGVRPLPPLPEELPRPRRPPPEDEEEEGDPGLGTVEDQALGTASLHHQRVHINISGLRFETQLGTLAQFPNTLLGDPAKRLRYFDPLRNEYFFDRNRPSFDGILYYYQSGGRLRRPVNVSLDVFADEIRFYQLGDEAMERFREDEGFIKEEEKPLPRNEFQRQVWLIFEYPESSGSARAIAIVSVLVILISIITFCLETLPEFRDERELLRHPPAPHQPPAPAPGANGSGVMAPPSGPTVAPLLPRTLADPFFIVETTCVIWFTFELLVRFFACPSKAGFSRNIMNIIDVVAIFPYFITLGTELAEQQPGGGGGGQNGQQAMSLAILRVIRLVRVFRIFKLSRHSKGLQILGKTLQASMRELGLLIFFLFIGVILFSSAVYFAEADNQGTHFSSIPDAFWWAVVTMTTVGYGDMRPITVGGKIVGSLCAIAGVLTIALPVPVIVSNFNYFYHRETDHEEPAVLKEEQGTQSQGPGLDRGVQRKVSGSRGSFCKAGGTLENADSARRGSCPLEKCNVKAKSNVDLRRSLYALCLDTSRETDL

SMILES	inhibition [1]	IC50 [2]	also measured
CC1=C(C(=O)N2CCN(c3ccc(F)cc3)CC2)C(c2cccc(C#N)c2)n2nccc2N1 (centres undefined)	11%		
CC1=C(C(=O)N2CCN(c3ccc(F)cc3)CC2)C(c2ccc(C)s2)n2nccc2N1 (centres undefined)	1%		
CC1=C(C(=O)Nc2ccccc2)C(c2ccc(Cl)c(Cl)c2)n2nccc2N1 (centres undefined)		170 nM	inhibition [3]: 83%
CC1=C(C(=O)N2CCN(c3ccc(F)cc3)CC2)C(c2cccnc2)n2nccc2N1 (centres undefined)	3%		
CC1=C(C(=O)N2CCN(c3ccc(F)cc3)CC2)C(c2ccc(C#N)cc2)n2nccc2N1 (centres undefined)	14%		
CCCCN(CCCC)C(=O)C1=C(C)Nc2ccnn2C1c1ccc(Cl)c(Cl)c1 (centres undefined)	45%	310 nM	
CC1=C(C(=O)N2CCN(c3ccc(F)cc3)CC2)C(c2ccccn2)n2nccc2N1 (centres undefined)	3%		
CCCCCN(CCCCC)C(=O)C1=C(C)Nc2ccnn2C1c1ccc(Cl)c(Cl)c1 (centres undefined)	69%	580 nM	
CC1=C(C(=O)N2CCN(c3ccc(F)cc3)CC2)C(c2ccc(C)c(C)c2)n2nccc2N1 (centres undefined)	34%	750 nM	
CC1=C(C(=O)N2CCN(C3CCCCC3)CC2)C(c2ccc(Cl)c(Cl)c2)n2nccc2N1 (centres undefined)	17%		
CC1=C(C(=O)N2CCN(c3ccc(F)cc3)CC2)C(c2cccc(C)c2)n2nccc2N1 (centres undefined)	57%	540 nM	
CC1=C(C(=O)N2CCN(c3ccc(F)cc3)CC2)C(c2ccc(C)o2)n2nccc2N1 (centres undefined)	7%		
Cc1nc2ccnn2c(-c2cccc(Cl)c2Cl)c1C(=O)N1CCN(c2ccc(F)cc2)CC1	17%		
COc1ccc(C2C(C(=O)N3CCN(c4ccc(F)cc4)CC3)=C(C)Nc3ccnn32)cc1OC (centres undefined)	1%		
CC1=C(C(=O)N2CCN(c3ccc(F)cc3)CC2)C(c2cccc3c2OCO3)n2nccc2N1 (centres undefined)	18%		
CCCCCNC(=O)C1=C(C)Nc2ccnn2C1c1ccc(Cl)c(Cl)c1 (centres undefined)	48%	590 nM	
CC1=C(C(=O)Nc2cccnc2)C(c2ccc(Cl)c(Cl)c2)n2nccc2N1 (centres undefined)			inhibition [3]: 9%
CC1=C(C(=O)N2CCN(c3ccc(F)cc3)CC2)[C@@H](c2cccc(Cl)c2Cl)n2nccc2N1	67%	160 nM	inhibition at 10 µM (hERG (KCNH2)): 41%; inhibition [4]: 14%; inhibition [5]: 55%; inhibition [6]: 7%; inhibition [7]: 1%; fold change (FC) (Homo sapiens): > 50; fold change (FC) [8]: > 50; fold change (FC) [9]: > 50; fold change (FC) [10]: > 50; fold change (FC) [11]: > 50
CCN(CC)C(=O)C1=C(C)Nc2ccnn2C1c1ccc(Cl)c(Cl)c1 (centres undefined)	61%	440 nM	
CC1=C(C(=O)N2CCN(c3ccc(F)cc3)CC2)[C@@H](c2ccc(Cl)c(Cl)c2)n2nccc2N1	72%	70 nM	inhibition at 10 µM (hERG (KCNH2)): 69%; inhibition [4]: 42%; inhibition [5]: 59%; inhibition [6]: 21%; inhibition [7]: 3%; fold change (FC) (Homo sapiens): > 50; fold change (FC) [8]: > 50; fold change (FC) [9]: > 50; fold change (FC) [10]: > 50; fold change (FC) [11]: > 50
CC1=C(C(=O)N2CCN(c3ccc(F)cc3)CC2)C(c2sccc2C)n2nccc2N1 (centres undefined)	29%		
CC1=C(C(=O)N2CCN(c3ccc(F)cc3)CC2)C(c2ccc(Cl)cc2Cl)n2nccc2N1 (centres undefined)	50%	280 nM	
CC1=C(C(=O)N2CCC(c3ccccc3)CC2)C(c2ccc(Cl)c(Cl)c2)n2nccc2N1 (centres undefined)	59%	159 nM	

SMILES	inhibition [1]	IC50 [2]	also measured
CC1=C(C(=O)N2CCN(c3ccc(F)cc3)CC2)C(c2ccc(Cl)c(Cl)c2)n2nccc2N1 (centres undefined)	65%	120 nM	
CC1=C(C(=O)N2CCN(c3ccc(F)cc3)CC2)C(c2ccc(Cl)s2)n2nccc2N1 (centres undefined)	51%	230 nM	
CC1=C(C(=O)N2CCN(c3ccc(F)cc3)CC2)[C@H](c2cccc(Cl)c2Cl)n2nccc2N1	2%		
CCCCNC(=O)C1=C(C)Nc2ccnn2C1c1ccc(Cl)c(Cl)c1 (centres undefined)	56%	440 nM	
COc1cccc(C2C(C(=O)N3CCN(c4ccc(F)cc4)CC3)=C(C)Nc3ccnn32)c1 (centres undefined)	30%		
CC1=C(C(=O)N2CCN(c3ccc(F)cc3)CC2)C(c2ccccc2C)n2nccc2N1 (centres undefined)	37%		inhibition [12]: 48%
CC1=C(C(=O)N2CCN(c3ccc(F)cc3)CC2)C(c2ccc(Cl)cc2)n2nccc2N1 (centres undefined)	42%	440 nM	
COc1ccccc1C1C(C(=O)N2CCN(c3ccc(F)cc3)CC2)=C(C)Nc2ccnn21 (centres undefined)	2%		
CCCN(CCC)C(=O)C1=C(C)Nc2ccnn2C1c1ccc(Cl)c(Cl)c1 (centres undefined)	72%	70 nM	
CC1=C(C(=O)N2CCN(c3ccc(F)cc3)CC2)C(c2ccco2)n2nccc2N1 (centres undefined)	1%		
CC1=C(C(=O)N2CCN(c3ccc(F)cc3)CC2)C(c2ccc3ccccc3c2)n2nccc2N1 (centres undefined)	39%	650 nM	
CC1=C(C(=O)N2CCN(c3ccc(F)cc3)CC2)C(c2ccccc2[N+](=O)[O-])n2nccc2N1 (centres undefined)	4%		
CC1=C(C(=O)N2CCN(c3ccc(F)cc3)CC2)C(c2ccc3c(c2)OCO3)n2nccc2N1 (centres undefined)	26%		
CC1=C(C(=O)N2CCN(c3ccc(F)cc3)CC2)C(c2ccccc2Cl)n2nccc2N1 (centres undefined)	30%		
CC1=C(C(=O)N2CCN(c3ccc(F)cc3)CC2)C(c2ccc(C)cc2)n2nccc2N1 (centres undefined)	27%		
CC1=C(C(=O)N2CCC2)C(c2ccc(Cl)c(Cl)c2)n2nccc2N1 (centres undefined)	52%	970 nM	
CC1=C(C(=O)N2CCN(c3ccc(F)cc3)CC2)C(c2cccc(Cl)c2Cl)n2nccc2N1 (centres undefined)	72%	160 nM	
CC1=C(C(=O)N2CCN(c3ccc(F)cc3)CC2)C(c2cc(C)cc(C)c2)n2nccc2N1 (centres undefined)	58%	420 nM	
CC1=C(C(=O)N2CCN(c3ccc(F)cc3)CC2)C(c2sc3ccccc3c2C)n2nccc2N1 (centres undefined)	56%	200 nM	
CC1=C(C(=O)N2CCN(c3ccc(F)cc3)CC2)C(c2cccc([N+](=O)[O-])c2)n2nccc2N1 (centres undefined)	15%		
Cc1nc2ccnn2c(-c2ccc(Cl)c(Cl)c2)c1C(=O)N1CCCCC1	17%		
CC1=C(C(=O)N2CCN(c3ccc(F)cc3)CC2)C(c2ccccc2)n2nccc2N1 (centres undefined)	24%		
COC(=O)C1=C(C)NC(C)=C(C(=O)OC)C1c1ccccc1[N+](=O)[O-] [NIFEDIPINE]		6100 nM	IC50 [13]: 60 nM

SMILES	inhibition [1]	IC50 [2]	also measured
CC1=C(C(=O)N2CCN(c3ccc(F)cc3)CC2)C(c2cnc3ccccc3c2)n2nccc2N1 (centres undefined)	17%		
CC1=C(C(=O)N2CCN(c3ccc(F)cc3)CC2)C(c2cc(Cl)cc(Cl)c2)n2nccc2N1 (centres undefined)	62%	140 nM	
CC1=C(C(=O)NCCc2ccccc2)C(c2ccc(Cl)c(Cl)c2)n2nccc2N1 (centres undefined)		100 nM	inhibition [3]: 84%
CC1=C(C(=O)N2CCN(c3ccc(F)cc3)CC2)C(c2ccc([N+](=O)[O-])cc2)n2nccc2N1 (centres undefined)	24%		
CC1=C(C(=O)N2CCN(c3ccc(F)cc3)CC2)C(c2cc3ccccc3o2)n2nccc2N1 (centres undefined)	33%	160 nM	
CCCNC(=O)C1=C(C)Nc2ccnn2C1c1ccc(Cl)c(Cl)c1 (centres undefined)		490 nM	
CC1=C(C(=O)N2CCN(c3ccc(F)cc3)CC2)[C@H](c2ccc(Cl)c(Cl)c2)n2nccc2N1	19%		
COC[C@@H]1CCCN1C(=O)C1=C(C)Nc2ccnn2C1c1ccc(Cl)c(Cl)c1 (some centres undefined)	88%	200 nM	
COc1ccc(C2C(C(=O)N3CCN(c4ccc(F)cc4)CC3)=C(C)Nc3ccnn32)cc1 (centres undefined)	11%		
CCOC(=O)C1=C(C)Nc2ccnn2C1c1cccc(Cl)c1Cl (centres undefined)		1100 nM	IC50 [13]: 9380 nM
COC[C@H]1CCCN1C(=O)C1=C(C)Nc2ccnn2C1c1ccc(Cl)c(Cl)c1 (some centres undefined)	39%		
CC1=C(C(=O)N2CCN(c3ccccc3)CC2)C(c2ccc(Cl)c(Cl)c2)n2nccc2N1 (centres undefined)		85 nM	inhibition [3]: 82%
CC1=C(C(=O)N2CCCCC2)C(c2ccc(Cl)c(Cl)c2)n2nccc2N1 (centres undefined)	77%	90 nM	
CC1=C(C(=O)N2CCCCCC2)C(c2ccc(Cl)c(Cl)c2)n2nccc2N1 (centres undefined)	90%	190 nM	
COc1cccc(C2C(C(=O)N3CCN(c4ccc(F)cc4)CC3)=C(C)Nc3ccnn32)c1OC (centres undefined)	7%		
CC1=C(C(=O)NCc2ccccc2)C(c2ccc(Cl)c(Cl)c2)n2nccc2N1 (centres undefined)	62%	160 nM	
CC1=C(C(=O)N2CCN(c3ccc(F)cc3)CC2)C(c2cccc(Cl)c2)n2nccc2N1 (centres undefined)	68%	190 nM	
CC1=C(C(=O)N2CCN(c3ccc(F)cc3)CC2)C(c2ccc3ccccc3n2)n2nccc2N1 (centres undefined)	29%		
CC1=C(C(=O)N2CCN(c3ccc(F)cc3)CC2)C(c2cccs2)n2nccc2N1 (centres undefined)	7%		
CC1=C(C(=O)N2CCN(C)CC2)C(c2ccc(Cl)c(Cl)c2)n2nccc2N1 (centres undefined)	5%		
CC1=C(C(=O)N2CCN(c3ccc(F)cc3)CC2)C(c2cc(Cl)ccc2Cl)n2nccc2N1 (centres undefined)	41%	820 nM	
CC1=C(C(=O)N2CCCC2)C(c2ccc(Cl)c(Cl)c2)n2nccc2N1 (centres undefined)	67%	660 nM	
CC1=C(C(=O)N2CCOCC2)C(c2ccc(Cl)c(Cl)c2)n2nccc2N1 (centres undefined)	17%		
